Tests used:
[1] = system: chondrocytes from sterna of 16-day-old embryonic chicks; experiment: Stimulation of DNA synthesis in chondrocytes by PTH fragments (Table 1); format: cell-based, chick; settings: for [^3 H]thymidine incorporation: 4 h, control 324 ± 18; for E/C: stimulated / non-induced control cells
Protocol: Chondrocytes were isolated from sterna of 16-day-old embryonic chicks according to J. Biol. Chem., 261 (1986) 7997-8001 (10; Yasui et al.) with some modifications. Collagenase was dissolved in Hanks' balanced salt solution (0.4 mM Na2 HPO4, 140 mN NaCl, 5.3 mM KCl, 0.4 mM MgSO4, 1.3 mM CaCl2, 0.4 mM KH2 PO4, 0.5 mM MglC2, 5 mM glucose, 0.05% gentamicin) at a concentration of 286 units/ml. Sterna were treated repeatedly for 30 min with collagenase solution at 37° C. Cells first released by this procedure were discarded because of their very poor responsiveness towards PTH. The collagenase treatment was subsequently repeated leading to a highly homogenous cell population of chondrocytes. The cells obtained by a second collagenase treatment were collected by centrifugation (1000 rpm, 10 min), washed twice with medium (Dulbecco's modified Eagle's medium, GIBCO, supplemented with NaHCO3 (45 mM), glutamine (2 mM), penicillin G/streptomycin (65 mg/1 and 100 mg/l, respectively), Hepes (10 mM, pH 7.2), and FCS (10% v/v) and counted.
The DNA synthesis rate was assayed in monolayer culture by the incorporation of ]^3 H]thymidine into perchloric acid-precipitable material. […] After 17 h, the medium was replaced by 200 μl of serum-free medium. After 4 days, chondrocytes were incubated for 4 h with the appropriate effector and 1μ Ci of [^3 H]thymidine. Subsequently, medium was removed and the cells were washed twice with 200 μl of phosphate-buffered saline (PBS: 137 mM NaCl, 2.7 mN KCl, 1.5 mM KH2 PO4, 0.8 mN Na2 HPO4, pH 7.0). Then cells were lysed by 100 μl of 2% (v/v) Nonidet P- 40 and 2% (w/v) sodium dodecyl sulfate treatment and the perchloric acid-insoluble material was precipitated by adding an equal volume of ice-cold 2% (w/v) perchloric acid in the presence of 1% herring sperm DNA as carrier. After storage for 10 min at -20° C., the precipitated material of each well was transferred to glass fiber filters with a Scatron--As semiautomatic cell harvester. Filters were dried at 80° C. for 20 min, transferred into scintillation vials, and 2 ml of scintillation mixture (scintillator 299; United Technology Pachard) were added. Radioactivity of the samples was determined with a β counter (Minimax; United Technology Pachard). Each test consisted of 5 up to 10 identically treated wells and was repeated at least twice with freshly prepared chondrocytes.
The incorporation of [^3 H]thymidine by non-induced control cells and by stimulated cells is shown by C and E, respectively. The results shown mean ±S.E. for n parallel cell cultures.

[2] = system: osteoblast enriched rat embryo calvaria cell cultures; experiment: Cyclic AMP production in rat embryo calvaria cell cultures; format: cell-based; settings: 100 nM; 15 min; control 29 ± 2.9 pmol/mg of protein
Summary of the method: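 Osteoblast-enriched rat embryo calvaria cultures stimulated with PTH fragments from the central portion of the molecule. Cyclic AMP measured 15 min after stimulation; CK specific activity measured 24 h after stimulation. Values are means ±S.E.M., N≥5, compared with controls by Student's T test.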

[3] = system: osteoblast enriched rat embryo calvaria cell cultures; experiment: DNA synthesis ([3H]thymidine incorporation) in rat embryo calvaria cell cultures; format: cell-based; settings: for [3H)Thymidine incorporation, effect of fragment (experimental value/control value): 100 nM, 24 h, control 624 ± 73 c.p.m./μg of DNA
Summary of the method: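 Cultures stimulated with bPTH (1-84); [3H]thymidine incorporation into DNA measured 24 h after stimulation. Values are means ±S.E.M., N≥5, compared with controls by Student's t test.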

[4] = system: rat epiphysial cartilage cell cultures; experiment: DNA synthesis in rat epiphysial cartilage cell cultures; format: cell-based; settings: for [^3 H]Thymidine incorporation into DNA: 100 nM, control 350 ± 25
[5] = system: rat organs (epiphysis, diaphysis, kidney); experiment: [3H]thymidine incorporation into DNA in rat organs after i.p. injection; format: in vivo; settings: 22-24 h after injection
Protocol: FIG. 12 is a graph showing the time course of stimulation by hPTH (1-34) of DNA synthesis in rat organs. Female rats (20-25 days old) were injected i.p. with hPTH-(1-34) (2 μg/rat). At 2 h before the times indicated, the rats were killed and organs were removed and incubated in 2 ml of Dulbecco's modified Eagle's medium containing 5 μl of [^3 H]thymidine. (Amersham: 5 Ci/mmol) for 2 h, then washed with medium and homogenized in deionized distilled water. The total uptake of [^3 H]thymidine and acid-insoluble radioactivity was measured, as well as DNA content, as described below. , Diaphysis; O, epiphysis; Δ; kidney. P<0.01 versus controls.
The pieces were then incubated for 2 h more (the time indicated in FIG. 12) with [^3 H]thymidine (5 μci/ml; 5 Ci/mmol) at 37° C. in Dulbecco's modified Eagle's medium under an atmosphere Of […] /95% air. Total [^3 H]thymidine uptake and incorporation into trichloroacetic acid-insoluble material was measured as described in Biochem. J., 214 (1983) 293-298 (16; Somjen et al.). At no time including the 22 24 h pulse, was there any significant change in the total uptake of [^3 H]thymidine which reflects changes in the thymidine pool which, in turn, could account for changes in incorporation. DNA was determined by the Burton method; cf. Biochem. J., 62 (1956) 315-323 (17; Burton).
To corroborate that under the circumstances of these experiments the increase in CK specific activity in bone is indeed a valid marker of cell proliferation, changes in DNA synthesis were measured by [^3 H]thymidine incorporation; cf. Biochem. J., 272 (1990) 781-785 (18; Somjen et al.). The earliest time at which PTH increased [^3 H]thymidine incorporation was determined by in-jecting rats with an optimal dose of 2 μp of PTH(1-34)/rat, equivalent to 13 nM (FIG. 14) and measuring 2 h pulses of [^3 H)thymidine incorporation into DNA (FIG. 12).

[6] = system: rat organs (epiphysis, diaphysis, kidney); experiment: as above; format: in vivo; settings: rat; for [^3 H]thymidine incorporation into DNA, Kidney: control 9.0 ± 2.1; for [^3 H]thymidine incorporation into DNA, Diaphysis: control 24.1 ± 3.8; for [^3 H]thymidine incorporation into DNA, Epiphysis: control 25.8 ± 5.2
[7] = system: renal PTH receptor; settings: Adv. Protein Chemistry 35 (1982) 323 ff. (Potts et al.); cited from earlier work
[8] = 22-24 h after injection of 0.876 μg
[9] = 22-24 h after injection of 1.25 μg
[10] = 22-24 h after injection of 0.875 μg

hPTH(25-39): PTH fragment 25-39, human source (RKKLQDVHNFVALGA; Parathyroid hormone; UniProt P01270 56-70, looked up, fragment)
[^3 H]thymidine incorporation ([1]; 6.1 × 10^-4 mol/l): 542 ± 71 cpm | E/C ([1]; 6.1 × 10^-4 mol/l): 1.67 | [^3 H]thymidine incorporation ([1]; 6.1 × 10^-5 mol/l): 655 ± 147 cpm | E/C ([1]; 6.1 × 10^-5 mol/l): 2.02 | [^3 H]thymidine incorporation ([1]; 6.1 × 10^-6 mol/l): 517 ± 65 cpm | E/C ([1]; 6.1 × 10^-6 mol/l): 1.60 | [^3 H]thymidine incorporation ([1]; 6.1 × 10^-7 mol/l): 418 ± 41 cpm | E/C ([1]; 6.1 × 10^-7 mol/l): 1.29 | [^3 H]thymidine incorporation ([1]; 6.1 × 10^-8 mol/l): 452 ± 56 cpm | E/C ([1]; 6.1 × 10^-8 mol/l): 1.40 | Cyclic AMP concentration, effect of fragment (experimental value/control value) [2]: 0.87 ± 0.30 | stimulation of DNA synthesis (in words) [3]: maximal | [3H)Thymidine incorporation, effect of fragment (experimental value/control value) [3]: 2.96 ± 0.18 | [^3 H]Thymidine incorporation into DNA [4]: 544 ± 44 c.p.m./plate | potency in stimulating [^3 H]thymidine incorporation in diaphysis and epiphysis (in words) [5]: as potent as hPTH(28-48) | [^3 H]thymidine incorporation into DNA, Kidney [6, 8]: 11.2 ± 1.9 c.p.m./pg of DNA | [^3 H]thymidine incorporation into DNA, Diaphysis [6, 8]: 44.8 ± 4.5 c.p.m./pg of DNA | [^3 H]thymidine incorporation into DNA, Epiphysis [6, 8]: 48.4 ± 6.6 c.p.m./pg of DNA

hPTH(28-48): mid-regional PTH fragment 28-48, human source (LQDVHNFVALGAPLAPRDAGS; Parathyroid hormone; UniProt P01270 59-79, looked up, fragment)
Cyclic AMP concentration, effect of fragment (experimental value/control value) [2]: 1.22 ± 0.09 | stimulation of DNA synthesis (in words) [3]: maximal | [3H)Thymidine incorporation, effect of fragment (experimental value/control value) [3]: 2.82 ± 0.18 | [^3 H]Thymidine incorporation into DNA [4]: 731 ± 44 c.p.m./plate | potency in stimulating [^3 H]thymidine incorporation in diaphysis and epiphysis (in words) [5]: as potent as bPTH(1-84) | binding to the renal PTH receptor [7]: does not bind to the renal PTH receptor | [^3 H]thymidine incorporation into DNA, Kidney [6, 9]: 11.2 ± 2.7 c.p.m./pg of DNA | [^3 H]thymidine incorporation into DNA, Diaphysis [6, 9]: 39.1 ± 8.1 c.p.m./pg of DNA | [^3 H]thymidine incorporation into DNA, Epiphysis [6, 9]: 46.7 ± 7.4 c.p.m./pg of DNA

hPTH(34-47): PTH fragment 34-47, human source; comparative example (FVALGAPLAPRDAG; Parathyroid hormone; UniProt P01270 65-78, looked up, fragment) [reference compound]
stimulation of DNA synthesis (in words) [4]: stimulated by all molecules tested except | [^3 H]Thymidine incorporation into DNA [4]: 356 ± 75 c.p.m./plate | potency in stimulating [^3 H]thymidine incorporation in diaphysis and epiphysis (in words) [5]: inactive | [^3 H]thymidine incorporation into DNA, Kidney [6, 10]: 9.0 ± 1.9 c.p.m./pg of DNA | [^3 H]thymidine incorporation into DNA, Diaphysis [6, 10]: 28.6 ± 4.2 c.p.m./pg of DNA | [^3 H]thymidine incorporation into DNA, Epiphysis [6, 10]: 28.0 ± 7.2 c.p.m./pg of DNA

— US5457092A, “Methods of promoting bone growth in mammals comprising administration of modified parathyroid hormone” (Gesellschaft fur Biotechnologische Forschung mbH (GBF), priority 1987, dated 1995)
